Assay results from ChEMBL document CHEMBL1201861, “Genomics of Drug Sensitity in Cancer screening data, Wellcome Trust Sanger Institute”.
pIC50: −log10 of the molar value.

Key:
Assay in all cases: cells
CP50-MEL-B = format: functional, cell-based, Homo sapiens; conditions: Homo sapiens, CP50-MEL-B;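 also: growth inhibition of the human cell line, measured with a cell viability read-out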
Description: SANGER: Inhibition of human CP50-MEL-B cell growth in a cell viability assay.

D-502MG = format: functional, cell-based, Homo sapiens; conditions: Homo sapiens, D-502MG
Description: SANGER: Inhibition of human D-502MG cell growth in a cell viability assay.

DJM-1 = format: functional, cell-based, Homo sapiens; conditions: Homo sapiens, DJM-1;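 also: growth inhibition of human DJM-1 cells, read out by a cell viability assay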
Description: SANGER: Inhibition of human DJM-1 cell growth in a cell viability assay.

DMS-79 = format: functional, cell-based; conditions: Homo sapiens;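 also: growth inhibition measured with a cell viability assay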
Description: SANGER: Inhibition of human DMS-79 cell growth in a cell viability assay.

DSH1 = format: functional, cell-based, Homo sapiens; conditions: Homo sapiens, DSH1;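 also: growth inhibition of human DSH1 cells, measured with a cell viability readout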
Description: SANGER: Inhibition of human DSH1 cell growth in a cell viability assay.

EM-2 = format: functional, cell-based; conditions: Homo sapiens;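 also: growth inhibition of EM-2 cells, read out with a cell viability assay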
Description: SANGER: Inhibition of human EM-2 cell growth in a cell viability assay.

GAMG = format: functional, cell-based, Homo sapiens; conditions: Homo sapiens, GAMG;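 also: cell growth inhibition measured by a viability assay in the GAMG human cell line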
Description: SANGER: Inhibition of human GAMG cell growth in a cell viability assay.

HCC1395 = format: functional, cell-based, Homo sapiens; conditions: Homo sapiens, HCC1395;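 also: growth inhibition of HCC1395 cells, read out by a cell viability assay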
Description: SANGER: Inhibition of human HCC1395 cell growth in a cell viability assay.

HEC-1 = format: functional, cell-based, Homo sapiens; conditions: Homo sapiens, HEC-1;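 also: growth inhibition of the cell line, read out with a cell viability assay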
Description: SANGER: Inhibition of human HEC-1 cell growth in a cell viability assay.

HO-1-N-1 = format: functional, cell-based, Homo sapiens; conditions: Homo sapiens, HO-1-N-1;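 also: growth inhibition of human HO-1-N-1 cells, read out with a cell viability assay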
Description: SANGER: Inhibition of human HO-1-N-1 cell growth in a cell viability assay.

HOS = format: functional, cell-based, Homo sapiens; conditions: Homo sapiens, HOS;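 also: growth inhibition of human HOS cells, read out with a cell viability assay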
Description: SANGER: Inhibition of human HOS cell growth in a cell viability assay.

HT-1376 = format: functional, cell-based, Homo sapiens; conditions: Homo sapiens, HT-1376
Description: SANGER: Inhibition of human HT-1376 cell growth in a cell viability assay.

IGROV-1 = format: functional, cell-based, Homo sapiens; conditions: Homo sapiens, IGROV-1;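 also: reduction of IGROV-1 cell growth, read out with a viability assay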
Description: SANGER: Inhibition of human IGROV-1 cell growth in a cell viability assay.

J-RT3-T3-5 = format: functional, cell-based; conditions: Homo sapiens;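 also: cell viability assay measuring growth inhibition of human J-RT3-T3-5 cells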
Description: SANGER: Inhibition of human J-RT3-T3-5 cell growth in a cell viability assay.

K562 = format: functional, cell-based; conditions: Homo sapiens
Description: SANGER: Inhibition of human K-562 cell growth in a cell viability assay.

KNS-42 = format: functional, cell-based, Homo sapiens; conditions: Homo sapiens, KNS-42;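 also: growth inhibition of KNS-42 cells, read out with a cell viability assay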
Description: SANGER: Inhibition of human KNS-42 cell growth in a cell viability assay.

KP-4 = format: functional, cell-based, Homo sapiens; conditions: Homo sapiens, KP-4; read-out: IC50;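 also: human KP-4 cells, with growth inhibition read out through a cell viability assay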
Description: SANGER: Inhibition of human KP-4 cell growth in a cell viability assay.

KYSE-70 cell line = format: functional, cell-based, Homo sapiens; conditions: Homo sapiens, KYSE-70;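 also: cell viability assay read-out, with IC50 expressing suppression of KYSE-70 cell growth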
Description: SANGER: Inhibition of human KYSE-70 cell growth in a cell viability assay.

L-363 = format: functional, cell-based; conditions: Homo sapiens
Description: SANGER: Inhibition of human L-363 cell growth in a cell viability assay.

LXF-289 cell line = format: functional, cell-based, Homo sapiens; conditions: Homo sapiens, LXF-289
Description: SANGER: Inhibition of human LXF-289 cell growth in a cell viability assay.

MDA-MB-415 = format: functional, cell-based; conditions: Homo sapiens
MMAC-SF = format: functional, cell-based, Homo sapiens; conditions: Homo sapiens, MMAC-SF;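 also: growth inhibition of human MMAC-SF cells, read out with a cell viability assay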
Description: SANGER: Inhibition of human MMAC-SF cell growth in a cell viability assay.

MV4-11 = format: functional, cell-based, MV-4-11; conditions: Homo sapiens;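 also: cell viability readout measuring growth inhibition of human MV-4-11 cells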
Description: SANGER: Inhibition of human MV-4-11 cell growth in a cell viability assay.

NB17 = format: functional, cell-based; conditions: Homo sapiens;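 also: growth inhibition of NB17 cells, read out with a cell viability assay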
Description: SANGER: Inhibition of human NB17 cell growth in a cell viability assay.

NCI-H2087 = format: functional, cell-based, Homo sapiens; conditions: Homo sapiens, NCI-H2087;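 also: growth inhibition determined with a cell viability readout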
Description: SANGER: Inhibition of human NCI-H2087 cell growth in a cell viability assay.

NCI-H2126 = format: functional, cell-based, Homo sapiens; conditions: Homo sapiens, NCI-H2126;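 also: growth inhibition of the cancer cell line, determined with a cell viability readout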
Description: SANGER: Inhibition of human NCI-H2126 cell growth in a cell viability assay.

NCI-H2452 = format: functional, cell-based, Homo sapiens; conditions: Homo sapiens, NCI-H2452;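 also: growth inhibition of NCI-H2452 cells, read out with a cell viability assay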
Description: SANGER: Inhibition of human NCI-H2452 cell growth in a cell viability assay.

NCI-H650 = format: functional, cell-based, Homo sapiens; conditions: Homo sapiens, NCI-H650;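 also: growth inhibition of NCI-H650 cells, read out by a viability assay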
Description: SANGER: Inhibition of human NCI-H650 cell growth in a cell viability assay.

SNU1 = format: functional, cell-based; conditions: Homo sapiens;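 also: growth inhibition of human NCI-SNU-1 cells, measured with a cell viability assay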
Description: SANGER: Inhibition of human NCI-SNU-1 cell growth in a cell viability assay.

OCI-AML2 = format: functional, cell-based; conditions: Homo sapiens;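 also: growth inhibition of OCI-AML2 cells, read out with a cell viability assay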
Description: SANGER: Inhibition of human OCI-AML2 cell growth in a cell viability assay.

OCUB-M = format: functional, cell-based, Homo sapiens; conditions: Homo sapiens, OCUB-M;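 also: growth inhibition of the cancer cell line, read out through a cell viability assay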
Description: SANGER: Inhibition of human OCUB-M cell growth in a cell viability assay.

RCM-1 = format: functional, cell-based, Homo sapiens; conditions: Homo sapiens, RCM-1;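 also: growth inhibition of the RCM-1 line, determined with a cell viability readout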
Description: SANGER: Inhibition of human RCM-1 cell growth in a cell viability assay.

RPMI-2650 = format: functional, cell-based, Homo sapiens; conditions: Homo sapiens, RPMI-2650
Description: SANGER: Inhibition of human RPMI-2650 cell growth in a cell viability assay.

Ramos-2G6-4C10 = format: functional, cell-based; conditions: Homo sapiens;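 also: growth inhibition of the cell line, measured by a cell viability read-out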
Description: SANGER: Inhibition of human Ramos-2G6-4C10 cell growth in a cell viability assay.

S-117 = format: functional, cell-based, Homo sapiens; conditions: Homo sapiens, S-117
Description: SANGER: Inhibition of human S-117 cell growth in a cell viability assay.

SK-MEL-24 = format: functional, cell-based; conditions: Homo sapiens;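 also: growth inhibition read out by a cell viability assay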
Description: SANGER: Inhibition of human SK-MEL-24 cell growth in a cell viability assay.

SK-N-AS = format: functional, cell-based, Homo sapiens; conditions: Homo sapiens, SK-N-AS;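 also: growth inhibition of human SK-N-AS cells, measured with a cell viability assay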
Description: SANGER: Inhibition of human SK-N-AS cell growth in a cell viability assay.

SK-N-DZ = format: functional, cell-based, Homo sapiens; conditions: Homo sapiens, SK-N-DZ;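 also: growth inhibition of the cancer cell line, read out through a viability assay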
Description: SANGER: Inhibition of human SK-N-DZ cell growth in a cell viability assay.

SW1463 = format: functional, cell-based, Homo sapiens; conditions: Homo sapiens, SW1463;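 also: growth inhibition of SW1463 cells, determined with a cell viability assay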
Description: SANGER: Inhibition of human SW1463 cell growth in a cell viability assay.

SW872 = format: functional, cell-based, Homo sapiens; conditions: Homo sapiens, SW872;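 also: growth inhibition of SW872 cells, read out by a viability assay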
Description: SANGER: Inhibition of human SW872 cell growth in a cell viability assay.

CWR22R = format: functional, cell-based, Homo sapiens; conditions: Homo sapiens, 22Rv1;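 also: growth inhibition of 22Rv1 cells, read out with a cell viability assay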
Description: SANGER: Inhibition of human 22RV1 cell growth in a cell viability assay.

A2780 = format: functional, cell-based, Homo sapiens; conditions: Homo sapiens, A2780;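 also: growth inhibition of A2780 cells, read out with a cell viability assay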
Description: SANGER: Inhibition of human A2780 cell growth in a cell viability assay.

A3-KAW = format: functional, cell-based; conditions: Homo sapiens;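 also: growth inhibition of human A3-KAW cells, read out with a cell viability assay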
Description: SANGER: Inhibition of human A3-KAW cell growth in a cell viability assay.

AU565 = format: functional, cell-based, Homo sapiens; conditions: Homo sapiens, AU565;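 also: cell viability assay measuring growth inhibition of human AU565 cells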
Description: SANGER: Inhibition of human AU565 cell growth in a cell viability assay.

BB30-HNC = format: functional, cell-based, Homo sapiens; conditions: Homo sapiens, BB30-HNC;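 also: growth inhibition of the cultured cell line, read out by a cell viability assay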
Description: SANGER: Inhibition of human BB30-HNC cell growth in a cell viability assay.

BXPC-3 = format: functional, cell-based, Homo sapiens; conditions: Homo sapiens, BXPC-3;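 also: growth inhibition of human BxPC-3 cells, read out by a cell viability assay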
Description: SANGER: Inhibition of human BxPC-3 cell growth in a cell viability assay.

C-33-A = format: functional, cell-based, Homo sapiens; conditions: Homo sapiens, C-33-A;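 also: cell viability assay measuring growth inhibition of C-33-A cells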
Description: SANGER: Inhibition of human C-33-A cell growth in a cell viability assay.

C3A = format: functional, cell-based, Homo sapiens; conditions: Homo sapiens, C3A;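 also: growth inhibition of C3A human cells, quantified with a cell viability readout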
Description: SANGER: Inhibition of human C3A cell growth in a cell viability assay.

CAL-51 = format: functional, cell-based, Homo sapiens; conditions: Homo sapiens, CAL-51;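 also: human CAL-51 cell line, growth inhibition read out via a cell viability assay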
Description: SANGER: Inhibition of human CAL-51 cell growth in a cell viability assay.

TGBC24TKB = format: functional, cell-based, Homo sapiens; conditions: Homo sapiens, TGBC24TKB;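 also: growth inhibition of human TGBC24TKB cells, read out with a cell viability assay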
Description: SANGER: Inhibition of human TGBC24TKB cell growth in a cell viability assay.

UMC-11 = format: functional, cell-based, Homo sapiens; conditions: Homo sapiens, UMC-11;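 also: growth inhibition of UMC-11 cells, read out with a cell viability assay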
Description: SANGER: Inhibition of human UMC-11 cell growth in a cell viability assay.

COLO-684 = format: functional, cell-based; conditions: Homo sapiens
Description: SANGER: Inhibition of human COLO-684 cell growth in a cell viability assay.

Q: What does the source list for `Nc1ccn([C@@H]2O[C@H](CO)[C@@H](O)[C@@H]2O)c(=O)n1` [CYTARABINE]?
A: pIC50 (CP50-MEL-B): < 5.70; pIC50 (D-502MG): < 5.70; pIC50 (DJM-1): < 5.70; pIC50 (DMS-79): < 5.70; pIC50 (DSH1): < 5.70; pIC50 (EM-2): 6.67; pIC50 (GAMG): 6.40; pIC50 (HCC1395): < 5.70; pIC50 (HEC-1): 5.75; pIC50 (HO-1-N-1): 6.16; pIC50 (HOS): 6.29; pIC50 (HT-1376): 5.77; pIC50 (IGROV-1): 5.75; pIC50 (J-RT3-T3-5): 7.16; pIC50 (K562): < 5.70; pIC50 (KNS-42): < 5.70; pIC50 (KP-4): 6.27; pIC50 (KYSE-70 cell line): 5.73; pIC50 (L-363): 5.87; pIC50 (LXF-289 cell line): 6.60; pIC50 (MDA-MB-415): < 5.70; pIC50 (MMAC-SF): < 5.70; pIC50 (MV4-11): 5.73; pIC50 (NB17): < 5.70; pIC50 (NCI-H2087): < 5.70; pIC50 (NCI-H2126): < 5.70; pIC50 (NCI-H2452): < 5.70; pIC50 (NCI-H650): < 5.70; pIC50 (SNU1): 7.01; pIC50 (OCI-AML2): 6.26; pIC50 (OCUB-M): < 5.70; pIC50 (RCM-1): < 5.70; pIC50 (RPMI-2650): 6.40; pIC50 (Ramos-2G6-4C10): 6.06; pIC50 (S-117): < 5.70; pIC50 (SK-MEL-24): < 5.70; pIC50 (SK-N-AS): 6.35; pIC50 (SK-N-DZ): 5.97; pIC50 (SW1463): < 5.70; pIC50 (SW872): < 5.70; pIC50 (CWR22R): < 5.70; pIC50 (A2780): 6.79; pIC50 (A3-KAW): 6.07; pIC50 (AU565): < 5.70; pIC50 (BB30-HNC): < 5.70; pIC50 (BXPC-3): < 5.70; pIC50 (C-33-A): 6.26; pIC50 (C3A): < 5.70; pIC50 (CAL-51): 6.24; pIC50 (TGBC24TKB): 5.73; pIC50 (UMC-11): < 5.70; pIC50 (COLO-684): < 5.70

Q: Which results are given for `C=CCNC1=C2C[C@@H](C)C[C@H](OC)[C@H](O)[C@@H](C)/C=C(\C)[C@H](OC(N)=O)[C@@H](OC)/C=C\C=C(/C)C(=O)NC(=CC1=O)C2=O` [TANESPIMYCIN]?
A: pIC50 (CP50-MEL-B): 7.46; pIC50 (D-502MG): < 6.00; pIC50 (DJM-1): < 6.00; pIC50 (DSH1): 7.42; pIC50 (EM-2): < 6.00; pIC50 (GAMG): 7.46; pIC50 (HCC1395): < 6.00; pIC50 (HEC-1): 7.18; pIC50 (HO-1-N-1): 7.40; pIC50 (HOS): 6.38; pIC50 (HT-1376): 6.77; pIC50 (IGROV-1): 6.73; pIC50 (J-RT3-T3-5): < 6.00; pIC50 (K562): < 6.00; pIC50 (KNS-42): < 6.00; pIC50 (KP-4): 7.32; pIC50 (KYSE-70 cell line): 6.48; pIC50 (L-363): 7.09; pIC50 (LXF-289 cell line): 8.38; pIC50 (MDA-MB-415): 6.15; pIC50 (MMAC-SF): 6.98; pIC50 (MV4-11): 7.17; pIC50 (NB17): 6.06; pIC50 (NCI-H2087): 6.76; pIC50 (NCI-H2126): 6.25; pIC50 (NCI-H2452): 6.86; pIC50 (NCI-H650): 6.75; pIC50 (SNU1): 8.68; pIC50 (OCI-AML2): 6.18; pIC50 (OCUB-M): < 6.00; pIC50 (RCM-1): < 6.00; pIC50 (RPMI-2650): < 6.00; pIC50 (Ramos-2G6-4C10): < 6.00; pIC50 (S-117): 6.69; pIC50 (SK-MEL-24): 6.86; pIC50 (SK-N-AS): < 6.00; pIC50 (SK-N-DZ): < 6.00; pIC50 (SW1463): < 6.00; pIC50 (SW872): 6.22; pIC50 (CWR22R): < 6.00; pIC50 (A2780): 7.60; pIC50 (A3-KAW): 6.47; pIC50 (AU565): < 6.00; pIC50 (BB30-HNC): 6.76; pIC50 (BXPC-3): 6.80; pIC50 (C-33-A): < 6.00; pIC50 (C3A): 6.34; pIC50 (CAL-51): 7.85; pIC50 (TGBC24TKB): < 6.00; pIC50 (UMC-11): 6.26; pIC50 (COLO-684): 6.46
